For series [1], the target named is T1, CYP2D6 (Homo sapiens, UniProt P10635).
T1 construct: Pooled of Human Liver Microsomes was purchased from Xenotech, LLC; tissue Xenotech, LLC; host or cells: pooled human liver microsomes
Briefly: CYP2D6 inhibition screening test. It is filed as in vitro ADME. Particulars: pooled human liver microsomes, substrate bufuralol, 37° C. 10 min, 1'-hydroxybufuralol by LC-MSMS; read-out: Test Example 3: CYP2D6 Inhibition IC50. As for the experimental part: CYP2D6 Inhibition Screening Test
Bufuralol was purchased from Sigma-Aldrich Corp., and Pooled of Human Liver Microsomes was purchased from Xenotech, LLC.
150 μL of Pooled Human Liver Microsomes (20 mg/ml), 12 mL of a 0.5 M potassium phosphate buffer, 1.2 mL of a 165 mM magnesium chloride solution, and 34.65 mL of distilled water were mixed.
Bufuralol was dissolved at a concentration of 2.0 mM in DMSO and then diluted 200-fold with distilled water.
3-3 Experimental Procedures
1. A 10 mM DMSO solution of a test drug was serially diluted 5-fold with DMSO for 4 serial dilutions to prepare 10, 2, 0.4, and 0.08 mM DMSO solutions.
2. Each test drug solution of the step 1. and DMSO were separately diluted 96-fold with a human liver microsome solution, and each dilution was dispensed and 80 μL of each dilution to microplates.
3. 10 μL of a substrate solution and 10 μL of a β-NADPH solution were added to the well of the step 2., followed by incubation at 37° C. for 10 min.
4. The reaction was terminated by the addition of 300 μL of methanol.
5. The reaction mixture was filtered, and LC-MSMS analysis was conducted.
3-4 Quantification and Calculation
The amount of 1′-hydroxybufuralol produced was quantified by LC-MSMS, and this amount was used as a metabolic activity of CYP2D6 for each well. The remaining activity of each sample was determined by comparison with the activity obtained from DMSO as a test drug. An IC50 value of CYP2D6 inhibition was determined from the test drug concentration and remaining activity. The IC50 value was calculated by linear interpolation between two points that span the remaining activity 50%. A larger value of IC50 of CYP2D6 inhibition means weaker CYP2D6 inhibition.

Series [2] concerns the target T2, human serotonin 1A receptor (h-5-HT1A) (Homo sapiens, UniProt P08908).
T2 sequence (P08908 1-422): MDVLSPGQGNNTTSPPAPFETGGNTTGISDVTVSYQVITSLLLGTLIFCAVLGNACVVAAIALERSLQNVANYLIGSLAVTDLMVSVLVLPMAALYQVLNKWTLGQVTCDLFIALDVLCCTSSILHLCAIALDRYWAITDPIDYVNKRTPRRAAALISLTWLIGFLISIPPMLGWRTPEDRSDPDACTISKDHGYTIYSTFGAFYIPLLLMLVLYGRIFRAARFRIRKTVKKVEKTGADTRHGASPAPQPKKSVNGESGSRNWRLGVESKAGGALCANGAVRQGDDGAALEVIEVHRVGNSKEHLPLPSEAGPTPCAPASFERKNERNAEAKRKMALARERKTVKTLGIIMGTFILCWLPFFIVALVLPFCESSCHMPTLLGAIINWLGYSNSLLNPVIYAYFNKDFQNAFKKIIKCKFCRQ
Method: The cells were cultured in F12 containing 10% FCS, 500 μg/ml Geneticin, and 100 U/ml penicillin-100 μg/ml streptomycin (all manufactured by Sigma-Aldrich Corp.) in a 5% CO2 incubator. […] Specifically, the cells were dissociated/collected using 50 mM Tris-HCl (pH=7.4). The resulting cells were homogenized using a Teflon (registered trademark) homogenizer and then centrifuged (48,000×g, 20 min, 4° C.). The pellet was resuspended in an appropriate amount of 50 mM Tris-HCl (pH=7.4) and stored at −80° C. until use. The amount of the protein in the membrane preparation was quantified using Dye Reagent Concentrate (manufactured by Bio-Rad Laboratories, Inc.) with bovine serum albumin (manufactured by Sigma-Aldrich Corp.) as a standard.
The reaction solution was reacted at room temperature for 30 minutes and then rapidly filtered by suction at a low pressure through glass fiber filter paper. The glass fiber filter paper was washed twice with 250 μl of 50 mM Tris-HCl (pH=7.4) and then added to a counting vial containing 4 ml of ACS-II (manufactured by Amersham Biosciences). Receptor binding radioactivity remaining on the filter paper was measured using a liquid scintillation counter.

Series [3] has as its target T3, human serotonin transporter (h-SERT) (Homo sapiens, UniProt P31645).
T3 construct: expressed in transfected cells; host or cells: CHO cells (h-SERT/CHO), Geneticin-selected
Briefly: Screening test using [3H]citalopram binding for evaluating human serotonin reuptake inhibitory effect. Particulars: h-SERT/CHO membrane preparation, [3H]citalopram approximately 2 nM, room temperature 60 minutes; read-out: Test Example 1: h-SERT binding inhibition constant (Ki). From the text: CHO cells containing a human serotonin transporter (h-SERT) expressed therein (h-SERT/CHO) were used in the experiment.
1-2 Receptor Binding Experiment
A smaller value of the h-SERT binding inhibition constant Ki means a higher human serotonin reuptake inhibitory effect.

In series [4] the target is T3, human serotonin transporter (h-SERT). Briefly: Serotonin transporter function inhibition test using [3H]5-HT. It is filed as cell-based. Particulars: h-SERT/CHO cells, [3H]5-HT uptake approximately 10 nM, 37° C. 10 minutes; read-out: Test Example 5: h-SERT Function Inhibition Constant (Ki). As to the method: 1-1 Cells Used and Preparation of Cell Suspension
CHO cells containing a human serotonin transporter (h-SERT) expressed therein (h-SERT/CHO) were used in the experiment. […] The collected cells were suspended in a buffer solution containing 0.1 mM CaCl2 and 1 mM MgCl2 in PBS (hereinafter, referred to as PBSCM) and stored in ice until use.
Specifically, 149 μl of the cell suspension (10×10^4 cells/well) and 1 μl of a solution of a test drug dissolved in dimethyl sulfoxide were preincubated at 37° C. for 10 minutes.

Series [5] addresses T1, CYP2D6. Description: Screening test of the rate of CYP2D6 contribution in human liver microsomal metabolism. It is filed as in vitro ADME. Further details: key to Rate of CYP2D6 Contribution indeterminable due to high stability for human microsomal metabolism: —*^): The rate of CYP2D6 contribution was indeterminable in the present test due to high stability for human microsomal metabolism. Particulars: 1 mg/mL human liver microsomes, 1 μM test substance, 37° C.; for Test Example 4: Rate of CYP2D6 Contribution: with/without quinidine 4 μM. As for the experimental part: Screening Test of the Rate of CYP2D6 Contribution in Human Liver Microsomal Metabolism
0.2 mL of a 50 mM potassium phosphate buffer solution (pH 7.4) containing NADPH (final concentration: 3 mM, manufactured by Oriental Yeast Co., Ltd.), 1 mg/mL human liver microsomes (manufactured by XENOTECH, LLC), and a 1 μM test substance was heated on a water bath at 37° C. for metabolic reaction. After the reaction for 15 minutes or 30 minutes, methanol was added in a volume 3 times that of the reaction solution, and the mixture was stirred to terminate the reaction. This reaction solution was centrifuged for protein precipitation. Then, the supernatant was collected and subjected to LC-MS/MS analysis. The results were analyzed as follows:
The test substance was quantified, and time-dependent change in the amount of the substance remaining was logarithmically plotted. A metabolic rate was calculated from the slope.
The ratio of the metabolic rate obtained by the addition of quinidine (final concentration: 4 μM) to the reaction solution to the metabolic rate obtained without the addition was used as the rate of contribution of enzymes other than CYP2D6, and the rate of contribution obtained by subtracting this rate of contribution of other enzymes from the total was used as the rate of CYP2D6 contribution. Specifically, it was calculated according to the equation: Rate of contribution(%)={1−(metabolic rate [with quinidine]/metabolic rate[without quinidine])}×100. A smaller value of the rate of CYP2D6 contribution means smaller CYP2D6 contribution.
In general terms: Liver microsomes are vesicles of endoplasmic reticulum, rich in cytochrome P450 enzymes.

From patent publication US8557998B2, “Benzylpiperizine compound” (Dainippon Sumitomo Pharma Co., Ltd, priority 2008, dated 2013) come the findings set out here.

T1 sequence (P10635 whole entry): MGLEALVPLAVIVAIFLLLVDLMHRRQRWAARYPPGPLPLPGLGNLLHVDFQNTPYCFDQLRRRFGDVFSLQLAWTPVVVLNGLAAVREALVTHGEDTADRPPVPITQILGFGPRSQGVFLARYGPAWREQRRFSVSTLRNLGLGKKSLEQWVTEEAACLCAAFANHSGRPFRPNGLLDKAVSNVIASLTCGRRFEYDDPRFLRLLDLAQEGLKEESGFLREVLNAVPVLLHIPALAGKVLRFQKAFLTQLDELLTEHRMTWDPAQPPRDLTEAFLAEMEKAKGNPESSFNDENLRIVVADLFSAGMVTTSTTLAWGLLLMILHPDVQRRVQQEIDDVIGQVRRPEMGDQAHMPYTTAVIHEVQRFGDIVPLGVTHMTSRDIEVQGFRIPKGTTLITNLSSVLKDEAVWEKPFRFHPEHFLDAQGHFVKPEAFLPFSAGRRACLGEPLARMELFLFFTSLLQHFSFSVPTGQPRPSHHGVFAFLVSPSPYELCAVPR
T3 sequence (P31645 whole entry): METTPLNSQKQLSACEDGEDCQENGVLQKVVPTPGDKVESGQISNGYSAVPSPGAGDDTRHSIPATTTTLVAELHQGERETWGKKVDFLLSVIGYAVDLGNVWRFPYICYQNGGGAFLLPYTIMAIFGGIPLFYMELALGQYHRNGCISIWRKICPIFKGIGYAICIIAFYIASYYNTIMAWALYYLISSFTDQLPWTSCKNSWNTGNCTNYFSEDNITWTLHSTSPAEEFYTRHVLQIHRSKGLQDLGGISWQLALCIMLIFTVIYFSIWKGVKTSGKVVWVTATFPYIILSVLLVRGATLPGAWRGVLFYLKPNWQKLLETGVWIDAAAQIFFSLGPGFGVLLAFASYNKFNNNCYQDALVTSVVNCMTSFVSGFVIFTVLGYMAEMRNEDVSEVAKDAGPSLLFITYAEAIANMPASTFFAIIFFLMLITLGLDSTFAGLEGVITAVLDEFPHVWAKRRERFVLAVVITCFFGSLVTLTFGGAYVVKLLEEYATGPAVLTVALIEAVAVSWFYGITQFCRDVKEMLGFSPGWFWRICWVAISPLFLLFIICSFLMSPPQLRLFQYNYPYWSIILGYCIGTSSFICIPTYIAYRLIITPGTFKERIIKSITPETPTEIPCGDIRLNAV

In general, IC50 refers to the point on the concentration scale where inhibition reaches its midpoint. In general, Ki refers to the equilibrium dissociation constant of an inhibitor or competing ligand from its target. Consider `COCCOc1cc(CC2CCN(CCc3ccc4c(c3)C(=O)CC4)CC2)ccc1Br` [Example 1], for which, on CYP2D6 [1], the IC50 was found to be 27900 nM. Also, the figures for the Ki in series [2], in series [3] and in series [4] were 4.5 nM, 0.87 nM and 8.9 nM, respectively. Besides, on CYP2D6 [5], the “Test Example 4: Rate of CYP2D6 Contribution” value is 36%.

`O=C1CCOc2ccc(CCN3CCC(Cc4ccc(Br)c(OCCO)c4)CC3)cc21` [Example 13, 6-(2-{4-[4-Bromo-3-(2-hydroxyethoxy)benzyl]piperidin-1-yl}ethyl)-2,3-dihydro-4H-chromen-4-one]: on CYP2D6 [1], the IC50 amounted to 26900 nM. The values for the Ki in series [2], in series [3] and in series [4] were 8.6 nM, 7.4 nM and 51 nM, respectively. At CYP2D6 [5], the “Rate of CYP2D6 Contribution indeterminable due to high stability for human microsomal metabolism” value is “—*^)”.

For `COCCOc1cc(CC2CCN(CCc3ccc4c(c3)C(=O)CCO4)CC2)ccc1Cl` [Example 7, 6-(2-{4-[4-Chloro-3-(2-methoxyethoxy)benzyl]piperidin-1-yl}ethyl)-2,3-dihydro-4H-chromen-4-one], the IC50 at CYP2D6 [1] was 17500 nM. Moreover, the results for the Ki in series [3] and in series [4] were 2.7 nM and 16 nM, respectively. In addition, the “Test Example 4: Rate of CYP2D6 Contribution” value on CYP2D6 [5] is 54%.
